According to US8946216B2, “Indazole derivatives useful as ERK inhibitors” (Merck Sharp & Dohme Corp., priority 2010, dated 2015):

What was measured:
[1] = molecular target: fully phosphorylated, active Mouse ERK2 protein (Mus musculus, UniProt P63085); assay: Active ERK2 (aERK) assay, IMAP format; type: biochemical; details: 30 min preincubation; 1 μM substrate peptide, 30 μM ATP; fluorescence polarization; read-out: aERK2 IC50
Protocol: Active ERK2 (aERK) Assay:
Activated ERK2 activity was also determined in the IMAP assay format using the procedure outlined above. 1 μl of 25× compound was added to 14 μl of kinase buffer containing 0.25 ng fully phosphorylated, active Mouse ERK2 protein. Following a 30 minute incubation, the reactions were initiated by addition of 10 μl of kinase buffer containing 1 μM ERK2 IMAP substrate peptide (0.9 μM unlabeled IPTTPITTTYFFFK--CONH2 and 100 nM IPTTPITTTYFFFK(5-carboxyfluorescein)-CONH2) and 30 μM ATP. Reactions proceeded for 30 minutes before termination by addition of 60 μl IMAP detection beads in binding buffer. Plates were read as above after 30 minute binding equilibration. Active compounds were reconfirmed in an independent assay.

[2] = molecular target: unphosphorylated Mouse ERK2 protein (inactive ERK2) (Mus musculus, UniProt P63085); assay: Coupled ERK2 (cERK) assay, coupled MEK1/ERK2 IMAP; type: biochemical; details: 30 min preincubation with inactive ERK2, then activation by human MEK1; 30 μM ATP; fluorescence polarization; read-out: cERK2 IC50
Sequence of unphosphorylated Mouse ERK2 protein (inactive ERK2) (P63085 whole entry): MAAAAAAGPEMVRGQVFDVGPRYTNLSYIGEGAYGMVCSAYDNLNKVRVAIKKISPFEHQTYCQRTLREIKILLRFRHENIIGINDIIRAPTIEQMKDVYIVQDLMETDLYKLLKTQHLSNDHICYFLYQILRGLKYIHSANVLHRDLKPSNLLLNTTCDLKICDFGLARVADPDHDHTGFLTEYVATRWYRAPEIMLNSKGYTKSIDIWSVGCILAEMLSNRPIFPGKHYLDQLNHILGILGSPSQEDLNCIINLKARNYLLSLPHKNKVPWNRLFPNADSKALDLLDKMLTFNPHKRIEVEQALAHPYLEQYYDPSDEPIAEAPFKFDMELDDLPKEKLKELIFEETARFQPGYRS
Description: • 1. M. W. Pantoliana, E. C. Petrella, J. D. Kwasnoski, V. S. Lobanov, J. Myslik, E. Graf, T. Carver, E. Asel, B. A. Springer, P. Lane, F. R. Salemme, High-density miniaturized thermal shift assays as a general strategy for drug discovery, J. Biomol. Screen 6 (2001) 429-440 • 2. J. F. Brandts, L.-N. Lin, Study of strong to ultratight protein interactions using differential scanning calorimetry, Biochemistry 29 (1990) 6927-6940 • 3. Mayhood, T. W., Windsor, W. T., Ligand binding affinity determined by temperature-dependent circular dichroism: Cyclin-dependent kinase 2 inhibitors, Analytical Biochemistry 345 (2005) 187-197 Coupled ERK2 (cERK) Assay:
14 μl of kinase buffer (10 mM Tris.HCl pH 7.2, 10 mM MgCl2, 0.01% Tween-20, 1 mM DTT) containing 0.4 ng unphosphorylated Mouse ERK2 protein was added to each well of a black 384-well assay plate. […] DMSO concentration during initial incubation is 6.7%. ERK2 activity was determined to be insensitive to DMSO concentrations up to 20%. ERK2 was then activated and it's kinase activity measured by the addition of 10 μl kinase buffer with the following components (final concentration per reaction): 2 ng active (phosphorylated) human MEK1 protein and 4 μM (total) ERK2 IMAP substrate peptides (3.9 μM unlabeled IPTTPITTTYFFFK-CONH2 and 100 nM IPTTPITTTYFFFK(5-carboxyfluorescein)-CONH2) and 30 μM ATP. DMSO concentration during ERK activation was 4%. After one hour, reactions were terminated by addition of 60 μl IMAP detections beads in binding buffer (Molecular Devices). Binding was allowed to equilibrate for 30 minutes before reading the plate on an LJL Analyst Fluorescence Polarization plate reader. […] Active compounds were reconfirmed in an independent assay.

ERK protein = ERK protein (Homo sapiens, UniProt P28482); assay: TdF (Temperature Dependence Fluorescence, thermal shift) assay for ERK; type: binding; details: read-out: TdF Kd; 3 μM ERK protein, 15, 50 or 100 μM compound, Sypro Orange; Kd calculated from ΔTm; uncertainty estimated ±50%
Sequence of ERK protein (P28482 2-360): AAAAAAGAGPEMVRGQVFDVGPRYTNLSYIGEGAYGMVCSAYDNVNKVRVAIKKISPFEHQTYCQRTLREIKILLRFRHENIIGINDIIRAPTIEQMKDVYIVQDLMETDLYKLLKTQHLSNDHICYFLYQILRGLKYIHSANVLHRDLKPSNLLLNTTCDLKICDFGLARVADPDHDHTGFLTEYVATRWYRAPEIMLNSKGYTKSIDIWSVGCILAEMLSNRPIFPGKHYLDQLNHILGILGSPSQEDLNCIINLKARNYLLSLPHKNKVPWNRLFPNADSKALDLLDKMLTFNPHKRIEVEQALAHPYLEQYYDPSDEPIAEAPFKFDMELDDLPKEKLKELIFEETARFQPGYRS
Description: Assays: TdF Assay for ERK
The SAR (Structure Activity Relationship) for ERK ligands covered by this invention was interrogated using the TdF (Temperature Dependence Fluorescence) assay or best known as thermal shift assay. The TdF assay was mainly conducted in the 96-well based CHROMO-4 real time fluorescence plate reader (BioRad). The Sypro Orange (Sigma-Aldrich), environmentally sensitive fluorescence dye, was used to monitor the protein folding-unfolding transition. Protein-ligand binding was gauged by the change (or shift) in the unfolding transition temperature (ΔTm) acquired at protein alone with respect to protein in the presence of ligand of interest.
Compound of interest was first prepared in DMSO stock (typical concentration: 10 mM). Sample of 20 μL was then added into the 96-well PCR plate, where it consisted of 3 μM. […] Final percentage of DMSO resided in the sample was 2%. The sample plate was heated from 30° C. to 90° C. with thermal ramping rate of 1 ° C./min. The fluorescence signals were acquired with excitation and emission wavelengths centered at 490 and 560 nm respectively. The instrument thermal stability was ±0.2° C. The melting temperatures (Tm) for ERK protein under aforementioned conditions occurred at 61.0±0.2° C. and 64.8±0.2° C. respectively.
Theoretical Basis for TdF-based Ligand Binding Affinity Constant
The derivation of TdF-based ligand binding affinity constant (Kd) followed closely those previously formulated by Brandts and Lin [2]. In brief, the binding constant of the ligand at the Tm is expressed as below: […]
where T0 is the midpoint of unfolding for unliganded protein and Tm is the midpoint of unfolding in presence of ligand. [LTm] is free ligand at Tm. The ΔHu and ΔCpu are the enthalpy of unfolding and heat capacity change of unfolding for the protein respectively. Following algorithm derived by Winsor and coworker, the T0, ΔHu and ΔCpu can be determined separately from nonlinear regression fitting the protein alone melting curve:
Where F(T) is the observed fluorescence intensity at any temperature T, Yn and Yu are the predicted fluorescence intensities for fully folded and unfolded protein, respectively; mn and mu are slope correction for changes in Yn and Yu with respect to changes in temperature (analogously replace T0 with Tm in the above equation for liganded protein to yield Tm).
where ΔHL(T) is the van't Hoff enthalpy of ligand binding at temperature T and ΔCpL is the heat capacity upon ligand binding. For simplicity, the ΔCpL and ΔHL(T) were set to zero and −7 kcal/mol respectively. The uncertainty in the calculated ligand binding affinity constant was estimated to be ±50%.

Sequence of fully phosphorylated, active Mouse ERK2 protein (P63085 whole entry): as the sequence (P63085 whole entry) above

Row | SMILES | IC50 [1] | IC50 [2] | Kd (ERK protein)
1 | O=C(Nc1ccc2[nH]nc(-c3ccncc3)c2c1)C1CCN(Cc2ccccc2F)C1 (stereo not drawn) [Compound 65, 1-[(2-FLUOROPHENYL)METHYL]-N-[3-(4-PYRIDINYL)-1H-INDAZOL-5-YL]-3-PYRROLIDINECARBOXAMIDE] | 100 nM | 77.1 nM | 29.4 nM
2 | Cc1nc(CN2CCSC(C(=O)Nc3ccc4[nH]nc(-c5ccncc5)c4c3)C2)cs1 (stereo not drawn) [Compound 11, 4-[(2-METHYL-4-THIAZOLYL)METHYL]-N-[3-(4-PYRIDINYL)-1H-INDAZOL-5-YL]-2-THIOMORPHOLINECARBOXAMIDE] | 475 nM | 840 nM | 616 nM
3 | O=C(Nc1ccc2[nH]nc(-c3ccncc3)c2c1)C1CN(Cc2ccccc2F)CCS1 (stereo not drawn) [Compound 10, 4-[(2-FLUOROPHENYL)METHYL]-N-[3-(4-PYRIDINYL)-1H-INDAZOL-5-YL]-2-THIOMORPHOLINECARBOXAMIDE] | 77.2 nM | 36.4 nM | 15 nM
4 | COc1ccccc1CN1CCOC(C(=O)Nc2ccc3[nH]nc(-c4ccncc4)c3c2)C1 (stereo not drawn) [Compound 35, 4-[(2-METHOXYPHENYL)METHYL]-N-[3-(4-PYRIDINYL)-1H-INDAZOL-5-YL]-2-MORPHOLINECARBOXAMIDE] | 37.9 nM | 80.9 nM | 79 nM
5 | O=C(Nc1ccc2[nH]nc(-c3ccncc3)c2c1)C1CN(Cc2ccccc2F)CCS1(=O)=O (stereo not drawn) [Compound 70, 4-[(2-FLUOROPHENYL)METHYL]-N-[3-(4-PYRIDINYL)-1H-INDAZOL-5-YL]-2-THIOMORPHOLINECARBOXAMIDE, 1,1-DIOXIDE] | 13.9 nM | 17.7 nM | 12 nM
6 | O=C(Nc1ccc2[nH]nc(-c3ccncc3)c2c1)C1CN(Cc2c(F)cccc2F)CCO1 (stereo not drawn) [Compound 44, 4-[(2,6-DIFLUOROPHENYL)METHYL]-N-[3-(4-PYRIDINYL)-1H-INDAZOL-5-YL]-2-MORPHOLINECARBOXAMIDE] | 69.2 nM | 109 nM | 165 nM
7 | COc1ccc(F)c(CN2CCOC(C(=O)Nc3ccc4[nH]nc(-c5ccncc5)c4c3)C2)c1 (stereo not drawn) [Compound 46, 4-[(2-FLUORO-5-METHOXYPHENYL)METHYL]-N-[3-(4-PYRIDINYL)-1H-INDAZOL-5-YL]-2-MORPHOLINECARBOXAMIDE] | 148 nM | 148 nM | 167 nM
8 | N#Cc1ccccc1N1CCCC(C(=O)Nc2ccc3[nH]nc(-c4ccncc4)c3c2)C1 (stereo not drawn) [Compound 55, 1-(2-CYANOPHENYL)-N-[3-(4-PYRIDINYL)-1H-INDAZOL-5-YL]-3-PIPERIDINECARBOXAMIDE] | 82.3 nM | 91.5 nM | 23 nM
9 | O=C(Nc1ccc2[nH]nc(-c3ccncc3)c2c1)C1CN(Cc2ccccc2Cl)CCS1 (stereo not drawn) [Compound 9, 4-[(2-CHLOROPHENYL)METHYL]-N-[3-(4-PYRIDINYL)-1H-INDAZOL-5-YL]-2-THIOMORPHOLINECARBOXAMIDE] | 54.2 nM | 42.4 nM | 20 nM
10 | O=C(Nc1ccc2[nH]nc(-c3ccncc3)c2c1)C1CNCCC1c1ccc(F)cc1 (stereo not drawn) [Compound 52, 4-(4-FLUOROPHENYL)-N-(3-(PYRIDIN-4-YL)-1H-INDAZOL-5-YL)PIPERIDINE-3-CARBOXAMIDE] | 56.5 nM | 60.8 nM | 18 nM
11 | O=C(Nc1ccc2[nH]nc(-c3ccncc3)c2c1)C1CCCN(C(=O)c2ccccc2)C1 (stereo not drawn) [Compound 56, 1-BENZOYL-N-[3-(4-PYRIDINYL)-1H-INDAZOL-5-YL]-3-PIPERIDINECARBOXAMIDE] | 553 nM | 150 nM | 420 nM
12 | O=C(Nc1ccc2[nH]nc(-c3ccncc3)c2c1)C1CN(Cc2ccccn2)CCO1 (stereo not drawn) [Compound 5, N-[3-(4-PYRIDINYL)-1H-INDAZOL-5-YL]-4-(2-PYRIDINYLMETHYL)-2-MORPHOLINECARBOXAMIDE] | 1070 nM | 2440 nM | 647 nM
13 | CSC1(C(=O)Nc2ccc3[nH]nc(-c4ccncc4)c3c2)CCN(Cc2ccccc2F)C1 (stereo not drawn) [Compound 63, 1-[(2-FLUOROPHENYL)METHYL]-3-(METHYLTHIO)-N-[3-(4-PYRIDINYL)-1H-INDAZOL-5-YL]-3-PYRROLIDINECARBOXAMIDE] | 211 nM | 121 nM | 13.5 nM
14 | O=C(Nc1ccc2[nH]nc(-c3ccncc3)c2c1)C1CN(C(=O)OCc2ccccc2)CCN1 (stereo not drawn) [Compound 58, PHENYLMETHYL 3-[[[3-(4-PYRIDINYL)-1H-INDAZOL-5-YL]AMINO]CARBONYL]-1-PIPERAZINECARBOXYLATE] | 2200 nM | 960 nM | 602 nM
15 | O=C(Nc1ccc2[nH]nc(-c3ccncc3)c2c1)[C@@H]1CN(Cc2ccccc2F)CCS1 [Compound 60, 4-[(2-FLUOROPHENYL)METHYL]-N-[3-(4-PYRIDINYL)-1H-INDAZOL-5-YL]-2(S)-THIOMORPHOLINECARBOXAMIDE] | 175 nM | 72.3 nM | 6 nM
16 | O=C(Nc1ccc2[nH]nc(-c3ccncc3)c2c1)C1CN(Cc2cccnc2)CCO1 (stereo not drawn) [Compound 19, N-[3-(4-PYRIDINYL)-1H-INDAZOL-5-YL]-4-(3-PYRIDINYLMETHYL)-2-MORPHOLINECARBOXAMIDE] | 17000 nM | 2200 nM | 517 nM
17 | O=C(Nc1ccc2[nH]nc(-c3ccncc3)c2c1)C1CN(Cc2c(F)ccc(F)c2Cl)CCO1 (stereo not drawn) [Compound 48, 4-[(2-CHLORO-3,6-DIFLUOROPHENYL)METHYL]-N-[3-(4-PYRIDINYL)-1H-INDAZOL-5-YL]-2-MORPHOLINECARBOXAMIDE] | 371 nM | 909 nM | 202 nM
18 | O=C(Nc1ccc2[nH]nc(-c3ccncc3)c2c1)C1CN(Cc2ccccc2F)CCO1 (stereo not drawn) [Compound 4, 4-[(2-FLUOROPHENYL)METHYL]-N-[3-(4-PYRIDINYL)-1H-INDAZOL-5-YL]-2-MORPHOLINECARBOXAMIDE] | 20.7 nM | 29.3 nM | 20 nM
19 | O=C(Nc1ccc2[nH]nc(-c3ccncc3)c2c1)C1CN(Cc2c(F)ccc(Cl)c2F)CCO1 (stereo not drawn) [Compound 47, 4-[(3-CHLORO-2,6-DIFLUOROPHENYL)METHYL]-N-[3-(4-PYRIDINYL)-1H-INDAZOL-5-YL]-2-MORPHOLINECARBOXAMIDE] | 581 nM | 452 nM | 223 nM
20 | O=C(Nc1ccc2[nH]nc(-c3ccncc3)c2c1)C1CNCCO1 (stereo not drawn) [Compound 16, N-[3-(4-PYRIDINYL)-1H-INDAZOL-5-YL]-2-MORPHOLINECARBOXAMIDE] | 852 nM | 2140 nM | 13500 nM
